Laboratory results as given in publication PMC10784468 (Nature Communications, 2024).
Read-outs that look alike come from different tables or passages of the source.

Experiments:
[1] = system: EJ cells; test: Intracellular Fe2+ ions detection; format: cell-based
Experimental: Initially, EJ cells (5 × 10^5) were cultured in confocal dish with a CO2 incubator overnight at 37 °C. […] Afterwards, EJ cells were washed with PBS for 3 times and replaced with culture mediums.

[2] = Critical aggregation concentration (pyrene probe, I338/I335); format: physicochemical; conditions: for I338/I335 (pyrene): pyrene 6 μM, emission 393 nm
Experimental: The CACs were determined using pyrene as a fluorescent probe. In brief, 50 μL of pyrene solution in acetone (480 μM) was added to a 5 mL centrifuge tube, followed by adding a series of peptide-porphyrin conjugate solutions with different concentrations, and the tube was kept overnight to evaporate the acetone completely, the concentration of pyrene being fixed at 6 μM at last. The excitation spectra of the solutions were recorded with the emission wavelength fixing at 393 nm, and the intensity ratio (I338/I335) was calculated as a function of the concentration. The CAC was determined based on the intersection point at low concentration on the plot.

[3] = system: HUVEC cells; format: cell-based; conditions: for Cell viability of HUVEC: HUVEC cells, pH=7.4
Experimental: Supplementary Fig. 27. Viability of HUVEC cells after treated with Gi -F (pH=7.4) and Gi-F-CAA (pH=7.4) at different
concentrations for 48 h (n=3 experimental repeats). Experiment was independently repeated three times with
(§1) (1 picture or pasted object on this page, not shown here)

[4] = •OH by TPA fluorescence assay, turnover frequency; conditions: TPA fluorescence 425 nm, H2O2 concentration-dependent
Experimental: The generation of •OH was determined by the Magnettech MS-5000 EPR spectrometer. Typically, peptide-porphyrin conjugates (40 μM) were exposed to H2O2 (200 μM) for 3 min in the presence of 5,5-dimethyl-1-pyrroline-N-oxide (DMPO, 100 μM). The •OH signal was immediately detected by the EPR spectrometer. The amount of •OH was measured by using TPA as an indicator that following the increasement of HTPA fluorescence in the conjugate solution. Briefly, TPA (50 μL, 2 mM) and fresh conjugate solution (50 mM) were mixed with 1 ml H2O, and then the solution was exposed to various concentration of H2O2. The fluorescence at 425 nm (λex = 310 nm) was recorded at 5 min to determine the concentration of •OH, which can further be applied for calculating the TOF of peptide-porphyrin conjugates.
Supplementary Fig. 21. Terephthalic acid (TPA) reacts with hydroxyl radical in solution to produce stable and strong fluorescent substances (Ortho -hydroxyterephthalic acid, HTPA). The reaction is used to quantitatively analyze •OH produced by Gi -F under the H2O2 treatment (a). Plot showing the linear relationship of relative fluorescence intensity with H 2O2 concentration (b). The fluorescence of different concentration of HTPA at 425 […]
as §1

FeTCPP-LKLKLK(SA)GACNWLPLYPCPV (disulfide) [Gi-F-SA, control conjugate decorated with non-sensitive succinic anhydride (SA) moieties]
intracellular Fe^2+ (FerroOrange fluorescence), pH 7.4 ([1]; EJ cells, pH 7.4, 8 h): no remarkable fluorescence
Concentrations of Fe2+ ions ([1]; pH=7.4, replicate #1): 13.222 ng/104cells
Concentrations of Fe2+ ions ([1]; pH=7.4, replicate #2): 11.221 ng/104cells
Concentrations of Fe2+ ions ([1]; pH=7.4, replicate #3): 12.7 ng/104cells

FeTCPP-LKLKLKGACNWLPLYPCPV (disulfide) [Gi-F]
I338/I335 (pyrene) ([2]; conjugate 0.97656 μM): 0.9792
I338/I335 (pyrene) ([2]; conjugate 1.95313 μM): 0.979
I338/I335 (pyrene) ([2]; conjugate 3.90625 μM): 0.9785
I338/I335 (pyrene) ([2]; conjugate 7.8125 μM): 0.9903
I338/I335 (pyrene) ([2]; conjugate 15.625 μM): 1.011
I338/I335 (pyrene) ([2]; conjugate 31.25 μM): 1.031
I338/I335 (pyrene) ([2]; conjugate 62.5 μM): 1.099
I338/I335 (pyrene) ([2]; conjugate 125 μM): 1.141
I338/I335 (pyrene) ([2]; conjugate 250 μM): 1.203
I338/I335 (pyrene) ([2]; conjugate 500 μM): 1.248
I338/I335 (pyrene) ([2]; conjugate 1000 μM): 1.254
critical aggregation concentration (CAC) ([2]; pyrene probe, I338/I335, PBS 0.01 M, pH 7.4): 13.8 µM
Cell viability of HUVEC ([3]; log concentration (μM) 0, replicate 1): 101.3%
Cell viability of HUVEC ([3]; log concentration (μM) 0, replicate 2): 99.35%
Cell viability of HUVEC ([3]; log concentration (μM) 0, replicate 3): 85.17%
Cell viability of HUVEC ([3]; log concentration (μM) 0.30103, replicate 1): 83.14%
Cell viability of HUVEC ([3]; log concentration (μM) 0.30103, replicate 2): 92.08%
Cell viability of HUVEC ([3]; log concentration (μM) 0.30103, replicate 3): 87.75%
Cell viability of HUVEC ([3]; log concentration (μM) 0.60206, replicate 1): 84.4%
Cell viability of HUVEC ([3]; log concentration (μM) 0.60206, replicate 2): 84.96%
Cell viability of HUVEC ([3]; log concentration (μM) 0.60206, replicate 3): 81.47%
Cell viability of HUVEC ([3]; log concentration (μM) 0.90309, replicate 1): 84.05%
Cell viability of HUVEC ([3]; log concentration (μM) 0.90309, replicate 2): 81.61%
Cell viability of HUVEC ([3]; log concentration (μM) 0.90309, replicate 3): 70.99%
Cell viability of HUVEC ([3]; log concentration (μM) 1.20412, replicate 1): 70.71%
Cell viability of HUVEC ([3]; log concentration (μM) 1.20412, replicate 2): 64.63%
Cell viability of HUVEC ([3]; log concentration (μM) 1.20412, replicate 3): 61.91%
Cell viability of HUVEC ([3]; log concentration (μM) 1.50515, replicate 1): 57.51%
Cell viability of HUVEC ([3]; log concentration (μM) 1.50515, replicate 2): 49.41%
Cell viability of HUVEC ([3]; log concentration (μM) 1.50515, replicate 3): 55.06%
Cell viability of HUVEC ([3]; log concentration (μM) 1.80618, replicate 1): 45.98%
Cell viability of HUVEC ([3]; log concentration (μM) 1.80618, replicate 2): 47.94%
Cell viability of HUVEC ([3]; log concentration (μM) 1.80618, replicate 3): 46.54%
Cell viability of HUVEC ([3]; log concentration (μM) 2.10721, replicate 1): 37.74%
Cell viability of HUVEC ([3]; log concentration (μM) 2.10721, replicate 2): 31.25%
Cell viability of HUVEC ([3]; log concentration (μM) 2.10721, replicate 3): 33.97%
Cell viability of HUVEC ([3]; log concentration (μM) 2.40824, replicate 1): 21.61%
Cell viability of HUVEC ([3]; log concentration (μM) 2.40824, replicate 2): 25.66%
Cell viability of HUVEC ([3]; log concentration (μM) 2.40824, replicate 3): 20.7%
cytotoxicity toward normal cells compared with Gi-F-CAA ([3]; pH 7.4): obvious increased cytotoxicity
turnover frequency (TOF) [4]: 0.022 s⁻¹
